{"source": "patent US12036312B2", "about": "“Non-aqueous topical compositions comprising a halogenated salicylanilide” (priority 2016, dated 2024)", "key": {"S. aureus": {"tested_on": "S. aureus", "experiment": "MIC assay according to CLSI criteria, Example 2, S. aureus strains", "format": "cell-based, Staphylococcus aureus", "conditions": "Staphylococcus aureus, read-out: MIC", "excerpt": "Chosen for its relevance regarding bacterial skin infections, the methicillin-resistant S. aureus (MRSA) 01 strain was used as the primary test microorganism. This strain is a community-acquired MRSA clinical isolate of USA 300 type, from a skin abscess.\nTwo-hundred-four other MRSA and methicillin-sensitive S. aureus strains, and 4 Streptococcus pyogenes strains, were also included in the study. These covered fusidic acid- and mupirocin-resistant strains, these two types of resistance being of clinical relevance.\nStrains were conserved in Luria Bertani (LB) Broth (S. aureus) or Brain Heart Infusion (BHI) (S. pyogenes) supplemented with glycerol 15% (v/v) at −80° C., and reactivated by isolation on LB (S. aureus) or BHI (S. pyogenes) agar plates. Strains were cultivated in Mueller Hinton (MH) Broth-cation adjusted (S. aureus) or BHI (S. pyogenes). All strains were cultivated aerobically (microaerobically for S. pyogenes strains) at 37° C.\nBacterial cultures were stopped in their exponential growth phase and plates were inoculated with the approximate concentration of 5×10^5 cells per well. Plates were incubated at 37° C. for 18 hours (S. aureus) or 24 hours (S. pyogenes). Optical density at a wavelength of 600 nm was measured at the end of the incubation time."}, "P. acnes": {"tested_on": "P. acnes", "format": "cell-based, Propionibacterium acnes", "conditions": "for Frequency of mutation/ml: MIC × 4"}}, "note": "Where two headings read alike, the source gives them in different places.", "data": [{"compound": "CC(=O)O[C@H]1C[C@@]2(C)[C@@H](C[C@@H](O)[C@H]3[C@@]4(C)CC[C@@H](O)[C@@H](C)[C@@H]4CC[C@@]32C)/C1=C(\\CCC=C(C)C)C(=O)O", "note": "[Fusidic acid, fusidic acid]", "values": [{"measurement": "MIC", "setting": "S. aureus; MRSA, strain MRSA 01", "value": 0.125, "unit": "µg/mL"}, {"measurement": "MIC", "setting": "S. aureus; MRSA, strain MRSA 02", "value": 0.5, "unit": "µg/mL"}, {"measurement": "MIC", "setting": "S. aureus; MRSA, strain MRSA 03", "value": 16, "unit": "µg/mL"}, {"measurement": "MIC", "setting": "S. aureus; MRSA, strain MRSA 04", "value": 0.25, "unit": "µg/mL"}, {"measurement": "MIC", "setting": "S. aureus; MRSA, strain MRSA 05", "value": 0.125, "unit": "µg/mL"}, {"measurement": "MIC", "setting": "S. aureus; MRSA, strain MRSA 06", "value": 0.125, "unit": "µg/mL"}, {"measurement": "MIC", "setting": "S. aureus; MRSA, strain MRSA 07", "value": 0.25, "unit": "µg/mL"}, {"measurement": "MIC", "setting": "S. aureus; MRSA, strain MRSA 08", "value": 0.125, "unit": "µg/mL"}, {"measurement": "MIC", "setting": "S. aureus; MRSA, strain MRSA 09", "value": 0.25, "unit": "µg/mL"}, {"measurement": "MIC", "setting": "S. aureus; MRSA, strain MRSA 10", "value": 1, "unit": "µg/mL"}, {"measurement": "MIC", "setting": "S. aureus; MRSA, strain MRSA 11", "value": 1, "unit": "µg/mL"}, {"measurement": "MIC", "setting": "S. aureus; MRSA, strain MRSA 12", "value": 4, "unit": "µg/mL"}, {"measurement": "MIC", "setting": "S. aureus; MRSA, strain MRSA 14", "value": "> 16", "unit": "µg/mL"}, {"measurement": "MIC", "setting": "S. aureus; MRSA, strain MRSA 16", "value": 0.25, "unit": "µg/mL"}, {"measurement": "MIC", "setting": "S. aureus; MRSA, strain MRSA 18", "value": 0.25, "unit": "µg/mL"}, {"measurement": "MIC", "setting": "S. aureus; MRSA, strain MRSA 19", "value": 0.125, "unit": "µg/mL"}, {"measurement": "MIC", "setting": "S. aureus; MRSA, strain MRSA 20", "value": 0.125, "unit": "µg/mL"}, {"measurement": "MIC", "setting": "S. aureus; MRSA, strain MRSA 21", "value": 0.125, "unit": "µg/mL"}, {"measurement": "MIC", "setting": "S. aureus; MRSA, strain MRSA 23", "value": 0.25, "unit": "µg/mL"}, {"measurement": "MIC", "setting": "S. aureus; MRSA, strain MRSA 24", "value": 0.25, "unit": "µg/mL"}, {"measurement": "MIC", "setting": "S. aureus; MRSA, strain MRSA 25", "value": 16, "unit": "µg/mL"}, {"measurement": "MIC", "setting": "S. aureus; MRSA, strain MRSA 26", "value": 0.5, "unit": "µg/mL"}, {"measurement": "MIC", "setting": "S. aureus; MRSA, strain MRSA 27", "value": 0.25, "unit": "µg/mL"}, {"measurement": "MIC", "setting": "S. aureus; MRSA, strain MRSA 30", "value": 0.125, "unit": "µg/mL"}, {"measurement": "MIC", "setting": "S. aureus; MRSA, strain MRSA 31", "value": 0.25, "unit": "µg/mL"}, {"measurement": "MIC", "setting": "S. aureus; MRSA, strain MRSA 32", "value": 0.5, "unit": "µg/mL"}, {"measurement": "MIC", "setting": "S. aureus; MRSA, strain MRSA 33", "value": 0.5, "unit": "µg/mL"}, {"measurement": "MIC", "setting": "S. aureus; MRSA, strain MRSA 34", "value": 0.25, "unit": "µg/mL"}, {"measurement": "MIC", "setting": "S. aureus; MRSA, strain MRSA 35", "value": 16, "unit": "µg/mL"}, {"measurement": "MIC", "setting": "S. aureus; MRSA, strain MRSA 36", "value": 8, "unit": "µg/mL"}, {"measurement": "MIC", "setting": "S. aureus; MRSA, strain MRSA 37", "value": 0.5, "unit": "µg/mL"}, {"measurement": "MIC", "setting": "S. aureus; MRSA, strain MRSA 38", "value": 8, "unit": "µg/mL"}, {"measurement": "MIC", "setting": "S. aureus; MRSA, strain MRSA 39", "value": 8, "unit": "µg/mL"}, {"measurement": "MIC", "setting": "S. aureus; MRSA, strain MRSA 40", "value": 0.125, "unit": "µg/mL"}, {"measurement": "MIC", "setting": "S. aureus; MRSA, strain MRSA 42", "value": 0.25, "unit": "µg/mL"}, {"measurement": "MIC", "setting": "S. aureus; MRSA, strain MRSA 49", "value": 0.25, "unit": "µg/mL"}, {"measurement": "MIC", "setting": "S. aureus; MRSA, strain MRSA 50", "value": 0.03, "unit": "µg/mL"}, {"measurement": "MIC", "setting": "S. aureus; MRSA, strain MRSA 53", "value": 0.25, "unit": "µg/mL"}, {"measurement": "MIC", "setting": "S. aureus; MRSA, strain MRSA 64", "value": 0.25, "unit": "µg/mL"}, {"measurement": "MIC", "setting": "S. aureus; MRSA, strain MRSA 67", "value": 0.25, "unit": "µg/mL"}, {"measurement": "MIC", "setting": "S. aureus; MRSA, strain MRSA 72", "value": 16, "unit": "µg/mL"}, {"measurement": "MIC", "setting": "S. aureus; MRSA, strain MRSA 73", "value": 0.25, "unit": "µg/mL"}, {"measurement": "MIC", "setting": "S. aureus; MRSA, strain MRSA 74", "value": 0.25, "unit": "µg/mL"}, {"measurement": "MIC", "setting": "S. aureus; MRSA, strain MRSA 75", "value": 0.5, "unit": "µg/mL"}, {"measurement": "MIC", "setting": "S. aureus; MRSA, strain MRSA 76", "value": 0.25, "unit": "µg/mL"}, {"measurement": "MIC", "setting": "S. aureus; MRSA, strain MRSA 77", "value": 16, "unit": "µg/mL"}, {"measurement": "MIC", "setting": "S. aureus; MRSA, strain MRSA 79", "value": 0.5, "unit": "µg/mL"}, {"measurement": "MIC", "setting": "S. aureus; MRSA, strain MRSA 81", "value": 0.25, "unit": "µg/mL"}, {"measurement": "MIC", "setting": "S. aureus; MRSA, strain MRSA 85", "value": 4, "unit": "µg/mL"}, {"measurement": "MIC", "setting": "S. aureus; MRSA, strain MRSA 86", "value": "> 16", "unit": "µg/mL"}, {"measurement": "MIC", "setting": "S. aureus; MRSA, strain MRSA 87", "value": 0.125, "unit": "µg/mL"}, {"measurement": "MIC", "setting": "S. aureus; MRSA, strain MRSA 88", "value": 0.06, "unit": "µg/mL"}, {"measurement": "MIC", "setting": "S. aureus; MRSA, strain MRSA 90", "value": 16, "unit": "µg/mL"}, {"measurement": "MIC", "setting": "S. aureus; MRSA, strain MRSA 91", "value": 0.25, "unit": "µg/mL"}, {"measurement": "MIC", "setting": "S. aureus; MRSA, strain MRSA 92", "value": 8, "unit": "µg/mL"}, {"measurement": "MIC", "setting": "S. aureus; MRSA, strain MRSA 94", "value": 0.125, "unit": "µg/mL"}, {"measurement": "MIC", "setting": "S. aureus; MRSA, strain MRSA 95", "value": 8, "unit": "µg/mL"}, {"measurement": "MIC", "setting": "S. aureus; MRSA, strain MRSA 96", "value": 0.125, "unit": "µg/mL"}, {"measurement": "MIC", "setting": "S. aureus; MRSA, strain MRSA 97", "value": 8, "unit": "µg/mL"}, {"measurement": "MIC", "setting": "S. aureus; MRSA, strain MRSA 99", "value": 0.125, "unit": "µg/mL"}, {"measurement": "MIC", "setting": "S. aureus; MRSA, strain MRSA 100", "value": 0.125, "unit": "µg/mL"}, {"measurement": "MIC", "setting": "S. aureus; MRSA, strain MRSA 101", "value": 8, "unit": "µg/mL"}, {"measurement": "MIC", "setting": "S. aureus; MRSA, strain MRSA 103", "value": 8, "unit": "µg/mL"}, {"measurement": "MIC", "setting": "S. aureus; MRSA, strain MRSA 104", "value": 0.25, "unit": "µg/mL"}, {"measurement": "MIC", "setting": "S. aureus; MRSA, strain MRSA 105", "value": 0.125, "unit": "µg/mL"}, {"measurement": "MIC", "setting": "S. aureus; MRSA, strain MRSA 106", "value": 0.125, "unit": "µg/mL"}, {"measurement": "MIC", "setting": "S. aureus; MRSA, strain MRSA 107", "value": 0.25, "unit": "µg/mL"}, {"measurement": "MIC", "setting": "S. aureus; MRSA, strain MRSA 108", "value": 4, "unit": "µg/mL"}, {"measurement": "MIC", "setting": "S. aureus; MRSA, strain MRSA 109", "value": 0.25, "unit": "µg/mL"}, {"measurement": "MIC", "setting": "S. aureus; MRSA, strain MRSA 111", "value": 8, "unit": "µg/mL"}, {"measurement": "MIC", "setting": "S. aureus; MRSA, strain MRSA 113", "value": 0.125, "unit": "µg/mL"}, {"measurement": "MIC", "setting": "S. aureus; MSSA, strain MSSA 01", "value": 4, "unit": "µg/mL"}, {"measurement": "MIC", "setting": "S. aureus; MSSA, strain MSSA 02", "value": 4, "unit": "µg/mL"}, {"measurement": "MIC", "setting": "S. aureus; NEWMAN, strain Newman", "value": 0.25, "unit": "µg/mL"}, {"measurement": "frequency of mutation of resistance", "setting": "P. acnes; P. acnes", "value": "~1×10^−8"}, {"measurement": "Frequency of mutation/ml", "setting": "P. acnes; P. acnes strain 998", "value": "9.17e-08", "unit": "mL⁻¹"}, {"measurement": "Frequency of mutation/ml", "setting": "P. acnes; P. acnes strain 1044", "value": "7.21e-08", "unit": "mL⁻¹"}, {"measurement": "Frequency of mutation/ml", "setting": "P. acnes; P. acnes strain CSS3023", "value": "1.82e-08", "unit": "mL⁻¹"}, {"measurement": "Frequency of mutation/ml", "setting": "P. acnes; P. acnes strain CSS3288", "value": "6.15e-08", "unit": "mL⁻¹"}]}]}
